Legend:
[1] = biological target: SLC41A1-related Na+/Mg2+ exchanger (Homo sapiens, UniProt Q8IVJ1); test: Modulators of SLC41A1-related Na+/Mg2+ exchanger activity (Table 3); type: cell-based; settings: at the dosage given, where given;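 note: listed substances are classed by whether they raise or lower SLC41A1-related Na+/Mg2+ exchanger activity, acting directly on the protein or through cellular signalling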
HEK293-(SLC41A1) cells = test: Proliferation (cell index) of HEK293-(SLC41A1) cells; settings: imipramine 250 μM, dB-cAMP 100 μM, added 24 hours after seeding; compared to controls
hSLC41A1 = hSLC41A1 (Homo sapiens, UniProt Q8IVJ1); test: Mg2+ efflux ([Mg2+]i decrease over 20 min) by mag-fura 2 FF-spectrofluorometry in +tet HEK293-(SLC41A1) cells; settings: for Effect on SLC41A1-mediated Mg2+ efflux (in words): summary statement; for Mg2+ efflux: Mg2+-free medium, [Na+]e 145 mM
hSLC41A1, sequence (Q8IVJ1 whole entry): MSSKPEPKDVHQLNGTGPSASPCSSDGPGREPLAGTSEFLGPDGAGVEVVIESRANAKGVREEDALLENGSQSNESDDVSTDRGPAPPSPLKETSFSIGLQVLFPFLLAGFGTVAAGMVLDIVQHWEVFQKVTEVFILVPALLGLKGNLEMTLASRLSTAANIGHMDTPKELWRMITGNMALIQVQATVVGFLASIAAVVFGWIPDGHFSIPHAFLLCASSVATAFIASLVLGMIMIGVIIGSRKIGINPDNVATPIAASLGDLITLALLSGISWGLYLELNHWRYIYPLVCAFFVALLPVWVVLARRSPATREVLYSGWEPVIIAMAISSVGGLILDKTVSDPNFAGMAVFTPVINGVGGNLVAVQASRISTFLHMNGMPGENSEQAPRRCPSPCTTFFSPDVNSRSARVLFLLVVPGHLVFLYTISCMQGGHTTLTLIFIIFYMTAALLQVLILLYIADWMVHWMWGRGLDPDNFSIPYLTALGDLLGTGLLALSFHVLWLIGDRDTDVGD
Experimental: Loading of cells with 7.5 μmol.l^−1 mag-fura 2 AM (Molecular Probes, Eugene, Oreg. USA) was performed for 30 minutes at 37° C. in the presence of loading facilitator Pluronic F-127 (Molecular probes). After being washed in CMF-HBS+, cells were incubated for a further 30 minutes at 37° C. to allow for complete de-esterification of the fluorescence probe, washed twice in CMF-HBS+ to remove extracellular mag-fura 2 and stored in CMF-HBS supplemented with 10 mmol.l^−1 HEPES, 5 mmol.l^−1 glucose and 0.4 mmol.l^−1 Mg^2+ until being Mg^2+-loaded before measurements of the Mg^2+ efflux capacity. The latter was determined as the intracellular Mg^2+ concentration ([Mg^2+]i) decrease over a 20-min period. Directly before the efflux experiments, −tet and +tet HEK293-(SLC41A1) were Mg-loaded by a 20-min incubation in CMF-HBS+ containing 0, 2, 5 or 10 mmol.l^−1 Mg. […] After loading, the remaining extracellular Mg^2+ was removed by washing the cells twice in CMF-HBS+ and, after re-suspending the cells in CMF-HBS+, measurements were started. To determine the influence of varying extracellular [Na^+], measuring solutions were prepared by diluting the CMF-HBS+ containing 145 mM Na^+ with appropriate volumes of a completely Na^+- and Mg^2+-free PBS. To investigate the effect of HCO3^− on Mg^2+ efflux, completely Ca^2+- and Mg^2+-free medium 199 completed with 10 mmol.l^−1 HEPES and 1.36 mmol.l^−1 L-glutamine (CMF-M199+) with Hank's (0.35 g/l NaHCO3) or Earl's (2.2 g/l NaHCO3) salts were used during Mg-loading and measurements. To ensure a stable pH value, the high-HCO3^− media were pre-equilibrated with 95% air-5% CO2.
Measurements were made at 37° C. in 3 ml cuvettes containing 2 ml cell suspension (CMF-HBS+ or CMF-M199+ with a cytocrit of 10%) under stirring. [Mg^2+]i was determined by measuring the fluorescence of the probe-loaded cells in a spectrofluorometer (LS50-B, PerkinElmer Life Science, Wellesley, Mass. USA) by using the fast filter accessory, which allowed fluorescence to be measured at 20-ms intervals with excitation at 340 and 380 nm, and emission at 515 nm. [Mg^2+]i values were calculated from the 340/380-nm ratio according to the formula of Grynkiewicz et al. (1981) by using the software FL WinLab version 4.0 (PerkinElmer Life Science). A dissociation constant of 1.5 mmol.l^−1 for the mag-fura 2/Mg^2+ complex was used for calculations; minimum (Rmin) and maximum (Rmax) ratios were determined at the end of each experiment by using digitonin. Rmax was found by the addition of 25 mmol.l^−1 MgCl2 in the absence of Ca^2+, whereas Rmin was obtained by addition of 50 mmol.l^−1 EDTA, pH 7.2, to remove all Mg^2+ from the solution. For data evaluation, 10-second data sets each were averaged at the beginning of the measurement and then always after 50 seconds. The final [Mg^2+]i was determined as the mean [Mg^2+]i of the last 10 seconds of the measurement. Thus, for the calculation of any given [Mg^2+]i, 500 data points were used. If not otherwise stated, data are presented as means±standard error (SE).

SLC41A1-related Na+/Mg2+ exchanger, sequence (Q8IVJ1 whole entry): as above

Row | Molecule | Effect on Na+/Mg2+ exchanger [1] | other results
1 | COc1c(O)c2c(=O)cc(OC)c3c4c(OC)cc(=O)c5c(O)c(OC)c(CC(C)OC(=O)c6ccccc6)c(c(c1CC(C)OC(=O)Oc1ccc(O)cc1)c23)c54 (stereo not shown) [Calphostin C, 1-[3,10-dihydroxy-12-[2-(4-hydroxyphenoxy)-carbonyloxypropyl]-2,6,7,11-tetramethoxy-4,9-dioxoperylen-1-yl]propan-2-yl benzoate] | inhibition | –
2 | COc1ccc2c(c1)c(CC(=O)O)c(C)n2C(=O)c1ccc(Cl)cc1 [Indomethacin, 2-[1-(4-chlorobenzoyl)-5-methoxy-2-methylindol-3-yl]acetic acid] | activation | –
3 | CCCC(=O)Nc1ncnc2c1ncn2[C@@H]1O[C@@H]2COP(=O)(O)O[C@H]2[C@H]1OC(=O)CCC [dibutyryl-cAMP] | activation | Effect on proliferation of SLC41A1-overexpressing cells (in words) (HEK293-(SLC41A1) cells): stimulation of their proliferation; increase of SLC41A1-related Mg2+ efflux (hSLC41A1; dB-cAMP 100 μM, loading in 0 mM-Mg2+ solution, +tet cells): 36%; increase of SLC41A1-related Mg2+ efflux (hSLC41A1; dB-cAMP 100 μM, loading in 2 mM-Mg2+ solution, +tet cells): 13%; decrease of SLC41A1-related Mg2+ efflux (hSLC41A1; dB-cAMP 100 μM, loading in 10 mM-Mg2+ solution, +tet cells): 17%; Effect on SLC41A1-mediated Mg2+ efflux (in words) (hSLC41A1): stimulated
4 | Angiotensin II: hormone; vasoactive agent, vasoconstriction (via AT 1 receptor) (DRVYIHPF; Angiotensin-2; UniProt P01019 25-32, looked up) | activation | stimulation of SLC41A1-related Mg2+ efflux (hSLC41A1): 19.5%; Effect on SLC41A1-mediated Mg2+ efflux (in words) (hSLC41A1): stimulated
5 | C[C@]12CC[C@H](O)C[C@@]1(O)CC[C@@H]1[C@@H]2CC[C@]2(C)[C@@H](c3ccc(=O)oc3)C[C@H]3O[C@]132 [marinobufagenin] | inhibition | –
6 | CN(C)CCCN1c2ccccc2CCc2ccccc21 [Imipramine, 10,11-Dihydro-N,N-dimethyl-5H-dibenz-[b,f]azepin-5-propanamin] | Inhibition | Effect on proliferation of SLC41A1-overexpressing cells (in words) (HEK293-(SLC41A1) cells): reduced the proliferation; Mg2+ efflux (hSLC41A1; 250 μM, Mg2+-loaded (20 min, 10 mM) +tet HEK293-(SLC41A1) cells, without inhibitor 341±35): 129±32 μM/20 min; Effect on SLC41A1-mediated Mg2+ efflux (in words) (hSLC41A1): strongly decrease
7 | CNC(=N)NCCC[C@H](N)C(=O)O [L-NMMA, NG-monomethyl-L-arginine] | inhibition | –
8 | C=C[C@@]1(C)CC(=O)[C@]2(O)[C@@]3(C)[C@@H](O)CCC(C)(C)[C@@H]3[C@H](O)[C@H](OC(C)=O)[C@@]2(C)O1 [Forskolin, [(3R,4aR,5S,6S,6aS,10S,10aR,10bS)-3-ethenyl-6,10,10b-trihydroxy-3,4a,7,7,10a-pentamethyl-1-oxo-5,6,6a,8,9,10-hexahydro-2H-benzo[f]chromen-5-yl] acetate] | activation | –
9 | CCN(CC)CC(=O)Nc1c(C)cccc1C [Lidocaine, 2-(diethylamino)-N-(2,6-dimethylphenyl)-acetamide] | Inhibition | –
10 | O=S(=O)([O-])c1cc(N=C=S)ccc1CCc1ccc(N=C=S)cc1S(=O)(=O)[O-].[Na+].[Na+] [DIDS, 4′,4′-diisothiocyanatodihydrostilbene-′,2′-disulfonic acid, disodium salt] | Inhibition | –
11 | Nc1nc2c(nc(Br)n2[C@@H]2O[C@@H]3COP(=O)(O)O[C@H]3[C@H]2O)c(=O)[nH]1 [8-bromo-cyclic GMP] | activation | –
12 | Nc1ncnc2c1ncn2[C@@H]1O[C@@H]2COP(O)(=S)O[C@H]2[C@H]1O (stereo partly shown) [Rp-cAMP] | inhibition | –
13 | O=c1onc2cnc3ccccc3n12 [ODQ, 1H-[1,2,4]oxadiazolo[4,3-α]quinoxaline-1] | inhibition | –
14 | C[C@@H]1O[C@@H](O[C@H]2C[C@@H](O)[C@]3(CO)[C@H]4[C@H](O)C[C@]5(C)[C@@H](C6=CC(=O)OC6)CC[C@]5(O)[C@@H]4CC[C@]3(O)C2)[C@H](O)[C@H](O)[C@H]1O [Ouabain] | inhibition | –
15 | C=CC1CN2CCC1CC2C(O)c1ccnc2ccc(OC)cc12 (stereo not shown) [Quinidin, (2-ethenyl-4-azabicyclo [2.2.2]oct-5-yl)-(6-methoxyquinolin-4-yl)-methanol] | Inhibition | Mg2+ efflux (hSLC41A1; 100 μM quinidin, Mg2+-loaded (10 mM) +tet HEK293-(SLC41A1) cells, without inhibitor 327±71): 176±0.5 μM/20 min; Effect on SLC41A1-mediated Mg2+ efflux (in words) (hSLC41A1): strongly decrease
16 | Glucagon: hormone; modulator listed in Table 3 | activation | –
17 | CS(=O)(=O)O.N=C(N)SCCc1ccc(OCc2ccc([N+](=O)[O-])cc2)cc1 [KB-R7943, 2-(2-(4-(4-nitrobenzyloxy)-phenyl)ethyl)isothiourea methanesulfonate] | Inhibition | –
18 | CC(C)NCC(O)c1ccc(O)c(O)c1 (stereo not shown) [isoproterenol] | activation | –

Row | Molecule | Effect on Na+/Mg2+ exchanger [1] | other results
19 | CCCCC/C=C\C/C=C\C/C=C\C/C=C\CCCC(=O)O [Arachidonic acid, (5Z,8Z,11Z,14Z)-icosa-5,8,11,14-tetraenoic acid] | activation | –
20 | CCCCC[C@H](O)/C=C/[C@H]1[C@H](O)CC(=O)[C@@H]1C/C=C\CCCC(=O)O [PGE2, (Z)-7-[(1R,2R,3R)-3-hydroxy-2-[(E,3S)-3-hydroxyoct-1-enyl]-5-oxocyclopentyl]hept-5-enoic acid] | activation | –
21 | Insulin: hormone (via insulin receptor) | inhibition | Effect on SLC41A1-mediated Mg2+ efflux (in words) (hSLC41A1): inhibitory effect
22 | N/C(=N\C(=O)c1nc(Cl)c(N)nc1N)NCc1ccccc1 [Benzamil, 3,5-diamino-N-[(1E)-amino(benzylamino)methylidene]-6-chloropyrazine-2-carboxamide] | Inhibition | –
23 | epidermal growth factor (EGF): mitogen | inhibition | –
24 | COCC(/C(C)=C/C(=N\O)C(N)=O)[N+](=O)[O-] (stereo not shown) [NOR1, (E)-4-methyl-2-[(E)-hydoxyimino]-5-nitro-6-methoxy-3-hexenamide] | activation | –
25 | CO[C@H]1C[C@H](O[C@H]2CC[C@@]3(C)[C@H](CC[C@@H]4[C@@H]3CC[C@]3(C)[C@@H](C5=CC(=O)OC5)[C@@H](OC(C)=O)C[C@]43O)C2)O[C@@H](C)[C@@H]1O [oleandrin] | inhibition | –
26 | C[C@]12CCC(=O)C=C1CC[C@@H]1[C@@H]2[C@@H](O)C[C@]2(C=O)[C@@H](C(=O)CO)CC[C@@H]12 [Aldosterone] | activation | –
27 | Nc1ncnc2c1nc(Cl)n2[C@@H]1O[C@@H]2COP(=O)(O)O[C@H]2[C@H]1O [8-Cl-cAMP] | activation | –
28 | COC(=O)C1=C(C)NC(C)=C(C(=O)OC)C1c1ccccc1[N+](=O)[O-] [Nifedipine, 3,5-dimethyl 2,6-dimethyl-4-(2-nitrophenyl)-1,4-di-hydropyridine-3,5-di-carboxylate] | Inhibition | –
29 | O=c1c(-c2ccc(O)cc2)coc2cc(O)cc(O)c12 [Genistein, 5,7-dihydroxy-3-(4-hydroxyphenyl)chromen-4-one] | inhibition | –
30 | NC[C@H](O)c1ccc(O)c(O)c1 [Norepinephrine] | activation | –
31 | C[C@]12CC[C@H](O)C[C@H]1CC[C@@H]1[C@@H]2CC[C@]2(C)[C@@](O)(c3ccoc3)CC[C@]12O [rostafuroxin] | inhibition | –
32 | N=C(N)NC(=O)c1nc(Cl)c(N)nc1N [Amiloride, 3,5-diamino-6-chloro-N-(diaminomethylidene)pyrazine-2-carbox-amide] | Inhibition | –
33 | C[C@@H]1C[C@@]2(NC(=O)CS2)[C@]2(O)O[C@@H]3C[C@@]4(CO)[C@@H](CC[C@@H]5[C@@H]4CC[C@]4(C)[C@@H](C6=CC(=O)OC6)CC[C@]54O)C[C@H]3O[C@@H]2O1 [UNBS-1450] | inhibition | –
34 | CCOc1ccc(Oc2ccc(OCc3cc(F)ccc3F)cc2)c(N)c1 [SEA0400, 2-[4-[(2,5-difluoro-phenyl)methoxy]phenoxy]-5-ethoxyaniline] | Inhibition | –
35 | CCCC(=O)O[C@@H]1[C@@H](C)[C@@]2(O)[C@@H](C=C(CO)C[C@]3(O)C(=O)C(C)=C[C@@H]23)[C@@H]2C(C)(C)[C@]12OC(=O)CCC [Phorbol 12,13-dibutyrate] | activation | –
36 | NCCS(=O)(=O)O [Taurine, 2-aminoethanesulfonic acid] | inhibition | –
